# PubChem BioAssay (NCI)
#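 Dose response: 5 concentrations. Exposure: 48 h. Format: 96-well plates. Endpoint: linear interpolation; highest concentration if not reached. GI50: concentration for 50% inhibition of growth. The concentration for full growth arrest is given as TGI.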
# Tests used:
# Test in all cases: DTP human tumour cell line panel, 48 h
# A549 NSCLC = system: A549 NSCLC
# HCC-2998 colon = system: HCC-2998 colon
# HL-60(TB) leukemia = system: HL-60(TB) leukemia
# HT29 colon = system: HT29 colon
# IGROV1 ovarian = system: IGROV1 ovarian
# NCI-H460 lung = system: NCI-H460 lung
# OVCAR-3 ovarian = system: OVCAR-3 ovarian
# RPMI-8226 leukemia = system: RPMI-8226 leukemia
# SK-OV-3 ovarian = system: SK-OV-3 ovarian
# T-47D breast = system: T-47D breast
Structure (SMILES),TGI (A549 NSCLC),TGI (HCC-2998 colon),TGI (HL-60(TB) leukemia),TGI (HT29 colon),TGI (IGROV1 ovarian),TGI (NCI-H460 lung),TGI (OVCAR-3 ovarian),TGI (RPMI-8226 leukemia),TGI (SK-OV-3 ovarian),TGI (T-47D breast),GI50 (HL-60(TB) leukemia),GI50 (RPMI-8226 leukemia)
CCC(/C=C/c1ccccc1)=N\NC(=S)N/N=C(/C=C/c1ccccc1)CC,> 100 µM,> 100 µM,62.7 µM,> 100 µM,> 100 µM,> 100 µM,> 100 µM,> 100 µM,> 100 µM,> 100 µM,,
COC(=O)c1ccc(NCC2=CC(=O)c3ccccc3C2=O)cc1,96.7 µM,> 63.3 µM,> 25.9 µM,> 76.4 µM,30.2 µM,35.6 µM,26.7 µM,> 26.5 µM,35.3 µM,32.5 µM,,
CC1(C)OC2CN(C(=O)OCc3ccccc3)C(CO)C2O1 (configuration not stated),> 100 µM,> 100 µM,> 100 µM,> 100 µM,> 100 µM,> 100 µM,> 100 µM,> 100 µM,> 100 µM,> 100 µM,,
OCC1CCCCN1Cc1nc2ccc(Cl)cc2[nH]1 (configuration not stated),> 100 µM,> 100 µM,> 100 µM,> 100 µM,> 100 µM,> 100 µM,> 100 µM,> 100 µM,> 100 µM,> 100 µM,,
CCOC(=O)NNC1(SC)NC(=O)c2c(cc(Cl)oc2=O)O1 (configuration not stated),21.1 µM,16.1 µM,3.6 µM,5.26 µM,14.5 µM,23.7 µM,10.9 µM,7.65 µM,26.8 µM,29.9 µM,,
COc1ccc(CN=C2Nc3ccncc3S(=O)(=O)N2c2ccccc2)cc1,> 100 µM,54.9 µM,36.8 µM,> 100 µM,> 100 µM,> 100 µM,> 100 µM,42.3 µM,> 100 µM,> 100 µM,,
O=C1CNc2cc(N3CCN(c4cccc(C(F)(F)F)c4)CC3)ccc2N1,> 100 µM,> 100 µM,> 83.5 µM,> 100 µM,> 100 µM,> 100 µM,> 100 µM,> 67.5 µM,> 100 µM,> 100 µM,,
COc1ccc(C2c3cc4c(cc3OC(N3CCOCC3)C2C)OCO4)c(OC)c1 (configuration not stated),58 µM,14.5 µM,> 31.4 µM,13.2 µM,> 100 µM,24.4 µM,13.9 µM,19.9 µM,52.6 µM,> 54.8 µM,,
OCCCN(CCc1ccc(Cl)c(Cl)c1)CCN1CCCC1,> 100 µM,32.9 µM,> 100 µM,> 100 µM,> 100 µM,> 100 µM,> 100 µM,70.6 µM,> 100 µM,> 100 µM,,
C#CCSc1cnc2ccccc2c1Sc1c[nH]c2ccccc2c1=O,> 100 µM,38.2 µM,88.9 µM,> 100 µM,20 µM,59.8 µM,> 100 µM,> 100 µM,> 100 µM,42.5 µM,,
CCOC(=O)C1(Cc2ccccc2)CCN(C(=O)c2ccccc2)C2C1C2(Cl)Cl (configuration not stated),> 100 µM,30.5 µM,32.6 µM,34.8 µM,> 100 µM,35.9 µM,47.1 µM,38.2 µM,> 100 µM,62.4 µM,,
CC1=NN(C(=O)CC(=O)Nc2cccc(Cl)c2)C(=O)C1N=Nc1ccc(S(=O)(=O)c2ccc(N=NC3C(=O)N(C(=O)CC(=O)Nc4cccc(Cl)c4)N=C3C)cc2)cc1 (configuration not stated),> 100 µM,> 100 µM,> 100 µM,> 100 µM,> 100 µM,> 100 µM,> 100 µM,> 100 µM,> 100 µM,> 100 µM,,
C(/C=N/NC1=NCCN1)=N\NC1=NCCN1,> 100 µM,> 100 µM,34.2 µM,> 100 µM,> 100 µM,> 100 µM,> 100 µM,> 100 µM,> 100 µM,> 100 µM,,
O=S(=O)(NC(c1ccccc1)(c1cc2ccccc2[nH]1)c1cc2ccccc2n1S(=O)(=O)c1ccccc1)c1ccccc1 (configuration not stated),> 100 µM,> 100 µM,> 100 µM,> 100 µM,> 100 µM,> 100 µM,> 100 µM,> 100 µM,92.4 µM,> 100 µM,,
CCOC(=O)CC[C@@H](NC(=O)c1ccc(NCc2ccc3nc(OC)c(OC)nc3c2)cc1)C(=O)OCC,> 100 µM,> 100 µM,> 100 µM,> 100 µM,56.7 µM,44.3 µM,38.3 µM,> 100 µM,> 100 µM,58.3 µM,,
O=C(COC(=O)c1ccccc1)c1ccc(Br)cc1,40.5 µM,26.9 µM,48.2 µM,46.3 µM,3.59 µM,37.2 µM,> 100 µM,16.9 µM,33.3 µM,62.6 µM,,
C/C=C/[C@@H]1O[C@H](CC#C[Si](C)(C)C)[C@@]2(C=O)C(C)=CC[C@H](C(C)C)[C@@H]12,64.5 µM,36.5 µM,19.2 µM,46.2 µM,10.7 µM,39.8 µM,42.4 µM,52.2 µM,> 100 µM,> 100 µM,,

Structure (SMILES),TGI (A549 NSCLC),TGI (HCC-2998 colon),TGI (HL-60(TB) leukemia),TGI (HT29 colon),TGI (IGROV1 ovarian),TGI (NCI-H460 lung),TGI (OVCAR-3 ovarian),TGI (RPMI-8226 leukemia),TGI (SK-OV-3 ovarian),TGI (T-47D breast),GI50 (HL-60(TB) leukemia),GI50 (RPMI-8226 leukemia)
O=[N+]([O-])/C(C(Cl)=C(Cl)Cl)=C(/Sc1ccccc1)N1CCOCC1,41.7 µM,29.9 µM,4.51 µM,26.2 µM,11.1 µM,27.1 µM,8.87 µM,5.73 µM,79.8 µM,16 µM,,
O=C(/C=C/c1ccc(Cl)c(Cl)c1)CCN1CCN(CCC(=O)/C=C/c2ccc(Cl)c(Cl)c2)CC1,> 100 µM,28.9 µM,> 100 µM,46.8 µM,49 µM,38.5 µM,58.4 µM,> 100 µM,> 100 µM,77.4 µM,,
CNC(=O)CNC(=O)CCC(=O)N(C)C,> 100 µM,> 100 µM,> 100 µM,> 100 µM,> 100 µM,> 100 µM,> 100 µM,> 100 µM,> 100 µM,> 100 µM,,
O=C(CN=C(CN(c1ccccc1)c1ccccc1)Oc1c([N+](=O)[O-])cc([N+](=O)[O-])cc1[N+](=O)[O-])N1CCNCC1,> 100 µM,> 100 µM,> 100 µM,> 100 µM,> 100 µM,> 100 µM,> 100 µM,> 100 µM,> 100 µM,> 100 µM,,
CCCCN(CCCC)c1ccc(N=Nc2ccc(S(=O)(=O)O)cc2)cc1,> 100 µM,73.7 µM,53.1 µM,85.1 µM,43.1 µM,> 100 µM,> 100 µM,53.5 µM,> 100 µM,55.5 µM,,
CC1C=C(NCC2(CO)CCC2)NC(N)=N1 (configuration not stated),> 100 µM,> 100 µM,> 100 µM,> 100 µM,> 100 µM,> 100 µM,> 100 µM,> 100 µM,> 100 µM,> 100 µM,,
CC(C)(N=NC(C)(C)C1=NCCN1)C1=NCCN1,> 100 µM,> 100 µM,> 100 µM,> 100 µM,> 100 µM,> 100 µM,> 100 µM,> 100 µM,> 100 µM,> 100 µM,> 100 µM,> 100 µM
Cc1ccc(NNc2cc(=O)[nH]c(=O)[nH]2)cc1Cl,> 100 µM,29.8 µM,18.3 µM,28.7 µM,27.6 µM,> 100 µM,28 µM,49.2 µM,> 100 µM,25.1 µM,,
C/C=C/OC1C(C2COC(C)(C)O2)OC2OC(C)(C)OC21 (configuration not stated),> 100 µM,> 100 µM,> 100 µM,> 100 µM,> 100 µM,> 100 µM,> 100 µM,> 100 µM,> 100 µM,> 100 µM,,
O=C(c1ccco1)N1CCN(C(=O)c2ccco2)C1=S,35.5 µM,25.7 µM,7.16 µM,24.2 µM,27.4 µM,30 µM,11.6 µM,7.31 µM,40.8 µM,27.8 µM,,
CC(=O)O/C(=C(/C#N)C(=O)O)C1C(C(=O)O)C(c2ccccc2[N+](=O)[O-])C=C(c2ccco2)N1c1ccncc1 (configuration not stated),26.7 µM,9.45 µM,> 100 µM,3.16 µM,3.29 µM,19.3 µM,8.07 µM,4.46 µM,23.9 µM,18.4 µM,,
COc1cc(/C=C2\CCc3cc(OC)c(OC)cc3C2=O)cc(OC)c1,> 100 µM,15 µM,> 24 µM,> 100 µM,> 100 µM,> 100 µM,> 42 µM,> 60.1 µM,> 100 µM,62.1 µM,,
O=C(O)c1cc2c(cc1S(=O)(=O)O)C1C(C3C2C2(Cl)C(Cl)=C(Cl)C3(Cl)C2(Cl)Cl)C2(Cl)C(Cl)=C(Cl)C1(Cl)C2(Cl)Cl (configuration not stated),> 100 µM,51.2 µM,79.9 µM,48 µM,> 100 µM,> 100 µM,> 100 µM,> 100 µM,> 100 µM,> 100 µM,,
CC(=O)NC1CCC(NC(=O)OC(C)(C)C)C(NC(=O)OC(C)(C)C)C1 (configuration not stated),> 100 µM,> 100 µM,> 100 µM,> 100 µM,> 100 µM,> 100 µM,> 100 µM,> 100 µM,> 100 µM,> 100 µM,,
C/C(=N/NC(=S)N(Cc1ccccn1)Cc1ccccn1)c1cnccn1,14.5 µM,> 43.4 µM,> 68.2 µM,10.3 µM,2.78 µM,> 33.1 µM,12.6 µM,> 37.4 µM,4.27 µM,> 33.8 µM,,
CO/N=C1/C(n2[nH]c(=O)n(-c3ccccc3)c2=O)C2C=CC1n1c(=O)n(-c3ccccc3)c(=O)n12 (configuration not stated),> 100 µM,> 100 µM,> 100 µM,> 100 µM,> 100 µM,> 100 µM,> 100 µM,> 100 µM,> 100 µM,> 100 µM,,
